Reference: US7214686B2, “Pharmaceutical compositions and methods for effecting dopamine release” (priority 1997, dated 2007)
pEC50, pKi: −log10 of the molar value. Like-named read-outs stand apart in the source and are kept apart here.

Key:
[1] = test system: striatal synaptosomes (dopamine release); assay: cells; format: cell-based, rat; settings: for pEC50: read-out: Dopamine Release EC50
[2] = biological target: T1, human muscle nAChR subtype (TE671/RD cells) (Homo sapiens, UniProt P02708+P07510+Q07001); assay: cell-based; format: cell-based; settings: for Muscle Effect Ecmax: maximal activation as a percentage of that induced by L-nicotine
T1 construct: These cells express receptors that have pharmacological; endogenous in cells; host or cells: TE671/RD (human embryonal rhabdomyosarcoma)
Description: Cells were cultured in Dulbecco's modified Eagle's medium (Gibco/BRL) with 10% horse serum (Gibco/BRL), 5% fetal bovine serum (HyClone, Logan Utah), 1 mM sodium pyruvate, 4 mM L-Glutamine, and 50,000 units penicillin-streptomycin (Irvine Scientific). When cells were 80% confluent, they were plated to 6 well polystyrene plates (Costar). Experiments were conducted when the cells reached 100% confluency.
On the day of the experiment, growth media was gently removed from the well and growth media containing ^86Rubidium chloride (10^6 μCi/mL) was added to each well. Cells were incubated at 37° C. for a minimum of 3 h. […] Next, cells were exposed to either 100 μM of test compound, 100 μM of L-nicotine (Acros Organics) or buffer alone for 4 min. Following the exposure period, the supernatant containing the released ^86Rb^+ was removed and transferred to scintillation vials. Scintillation fluid was added and released radioactivity was measured by liquid scintillation counting.
Within each assay, each point had 2 replicates, which were averaged. The amount of ^86Rb^+ release was compared to both a positive control (100 μM L-nicotine) and a negative control (buffer alone) to determine the percent release relative to that of L-nicotine.
(§1) When appropriate, dose-response curves of test compound were determined. The maximal activation for individual compounds (Emax) was determined as a percentage of the maximal activation induced by L-nicotine. The compound concentration resulting in half maximal activation (EC50) of specific ion flux was also determined.

[3] = biological target: T2, rat ganglionic nAChR subtype (PC12 cells) (Rattus norvegicus, UniProt P04757+P12392); assay: cell-based; format: cell-based
T2 construct: These cells express ganglion-like nAChRs; endogenous in cells; host or cells: PC12 (rat pheochromocytoma)
Description: Activation of rat ganglion nAChRs was established on the pheochromocytoma clonal line PC12, which is a continuous clonal cell line of neural crest origin, derived from a tumor of the rat adrenal medulla.
Cells were cultured in Dulbecco's modified Eagle's medium (Gibco/BRL) with 10% horse serum (Gibco/BRL), 5% fetal bovine serum (HyClone, Logan Utah), 1 mM sodium pyruvate, 4 mM L-Glutamine, and 50,000 units penicillin-streptomycin (Irvine Scientific). When cells were 80% confluent, they were plated to 6 well Nunc plates (Nunclon) and coated with 0.03% poly-L-lysine (Sigma, dissolved in 100 mM boric acid). Experiments were conducted when the cells reached 80% confluency.
On the day of the experiment, growth media was gently removed from the well and growth media containing ^86Rubidium chloride (10^6 μCi/mL) was added to each well. Cells were incubated at 37° C. for a minimum of 3 h. […] Next, cells were exposed to either 100 μM of test compound, 100 μM of nicotine or buffer alone for 4 min. Following the exposure period, the supernatant containing the released ^86Rb^+ was removed and transferred to scintillation vials. Scintillation fluid was added and released radioactivity was measured by liquid scintillation counting.
Within each assay, each point had 2 replicates, which were averaged. The amount of ^86Rb^+ release was compared to both a positive control (100 μM nicotine) and a negative control (buffer alone) to determine the percent release relative to that of L-nicotine.
as §1

[4] = physchem
[5] = biological target: T3, α4β2 nAChR subtype (Rattus norvegicus, UniProt P09483+P12390); assay: biochemical; settings: inhibition of [3H]nicotine binding, rat cerebral cortex membranes
T3 construct: The cerebral cortex was removed and placed in 20 volumes (weight:volume) of ice-old preparative buffer; from tissue; host or cells: rat cerebral cortex membranes

[6] = maximal activation as a percentage of that induced by L-nicotine
[7] = rat striatal synaptosomes, [3H]dopamine release
[8] = 86Rb+ efflux, read-out: Ganglion Effect EC50

T2 sequence (P04757 26-499): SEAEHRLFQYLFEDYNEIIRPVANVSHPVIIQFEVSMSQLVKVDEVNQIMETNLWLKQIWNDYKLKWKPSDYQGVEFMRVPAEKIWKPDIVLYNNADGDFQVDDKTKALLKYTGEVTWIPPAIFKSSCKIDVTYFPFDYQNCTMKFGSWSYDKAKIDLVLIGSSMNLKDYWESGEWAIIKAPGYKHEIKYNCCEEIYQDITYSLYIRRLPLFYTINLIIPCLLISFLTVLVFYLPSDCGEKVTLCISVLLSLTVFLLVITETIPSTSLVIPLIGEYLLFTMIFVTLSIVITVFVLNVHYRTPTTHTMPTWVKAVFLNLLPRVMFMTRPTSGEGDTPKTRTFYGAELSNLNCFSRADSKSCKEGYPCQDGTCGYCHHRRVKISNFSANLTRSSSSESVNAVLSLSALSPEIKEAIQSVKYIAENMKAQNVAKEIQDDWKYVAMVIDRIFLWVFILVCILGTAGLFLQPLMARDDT
T2 sequence (P12392 21-495): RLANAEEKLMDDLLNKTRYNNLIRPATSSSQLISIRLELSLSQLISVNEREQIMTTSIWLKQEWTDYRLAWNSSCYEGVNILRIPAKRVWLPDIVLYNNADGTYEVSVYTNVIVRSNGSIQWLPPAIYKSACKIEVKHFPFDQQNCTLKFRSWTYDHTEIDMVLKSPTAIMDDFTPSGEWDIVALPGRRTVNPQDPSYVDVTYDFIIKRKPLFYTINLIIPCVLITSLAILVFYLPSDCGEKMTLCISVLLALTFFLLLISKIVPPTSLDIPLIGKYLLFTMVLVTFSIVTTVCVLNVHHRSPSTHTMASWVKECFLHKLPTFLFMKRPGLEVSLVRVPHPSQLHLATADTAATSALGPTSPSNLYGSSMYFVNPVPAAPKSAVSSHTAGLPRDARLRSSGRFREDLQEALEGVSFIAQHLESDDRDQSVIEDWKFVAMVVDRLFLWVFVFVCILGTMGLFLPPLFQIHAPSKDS
T1 sequence (P02708 21-457): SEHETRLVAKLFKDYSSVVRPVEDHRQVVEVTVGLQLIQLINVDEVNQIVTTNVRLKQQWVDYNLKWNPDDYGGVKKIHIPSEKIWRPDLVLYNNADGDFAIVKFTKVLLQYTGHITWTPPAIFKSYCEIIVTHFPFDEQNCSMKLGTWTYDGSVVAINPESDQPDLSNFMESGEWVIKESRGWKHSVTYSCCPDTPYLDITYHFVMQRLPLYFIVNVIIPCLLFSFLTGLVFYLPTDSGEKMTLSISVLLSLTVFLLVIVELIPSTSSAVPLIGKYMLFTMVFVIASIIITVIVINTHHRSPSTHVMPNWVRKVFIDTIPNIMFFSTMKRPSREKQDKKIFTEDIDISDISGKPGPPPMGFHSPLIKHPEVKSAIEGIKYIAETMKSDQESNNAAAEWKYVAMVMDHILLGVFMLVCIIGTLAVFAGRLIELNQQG
T1 sequence (P11230 24-501 partner): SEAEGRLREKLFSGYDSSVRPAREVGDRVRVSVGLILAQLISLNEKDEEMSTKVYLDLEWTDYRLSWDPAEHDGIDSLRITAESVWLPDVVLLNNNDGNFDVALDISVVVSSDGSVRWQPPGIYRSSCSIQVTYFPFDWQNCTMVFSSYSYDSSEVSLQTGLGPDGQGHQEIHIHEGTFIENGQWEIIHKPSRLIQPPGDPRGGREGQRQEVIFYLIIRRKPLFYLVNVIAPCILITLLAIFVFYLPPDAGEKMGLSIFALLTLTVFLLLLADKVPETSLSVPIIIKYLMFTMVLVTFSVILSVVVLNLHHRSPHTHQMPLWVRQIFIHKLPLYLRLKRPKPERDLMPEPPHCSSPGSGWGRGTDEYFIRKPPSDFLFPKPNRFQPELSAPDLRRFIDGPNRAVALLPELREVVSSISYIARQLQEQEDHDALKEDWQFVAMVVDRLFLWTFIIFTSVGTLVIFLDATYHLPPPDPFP
T1 sequence (Q07001 22-517): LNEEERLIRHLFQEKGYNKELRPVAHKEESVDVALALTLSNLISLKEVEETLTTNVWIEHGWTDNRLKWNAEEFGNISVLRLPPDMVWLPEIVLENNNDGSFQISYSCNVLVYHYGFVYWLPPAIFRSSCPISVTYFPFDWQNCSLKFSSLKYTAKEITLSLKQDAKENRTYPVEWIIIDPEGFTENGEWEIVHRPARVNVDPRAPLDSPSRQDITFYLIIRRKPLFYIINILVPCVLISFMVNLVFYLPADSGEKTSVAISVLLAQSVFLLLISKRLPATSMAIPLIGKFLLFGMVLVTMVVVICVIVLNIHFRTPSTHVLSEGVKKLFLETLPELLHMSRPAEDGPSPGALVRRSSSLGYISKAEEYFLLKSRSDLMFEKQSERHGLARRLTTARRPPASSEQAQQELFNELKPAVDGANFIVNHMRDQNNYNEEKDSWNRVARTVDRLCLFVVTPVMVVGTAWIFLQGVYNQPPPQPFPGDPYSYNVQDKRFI
T1 sequence (P07510 23-517): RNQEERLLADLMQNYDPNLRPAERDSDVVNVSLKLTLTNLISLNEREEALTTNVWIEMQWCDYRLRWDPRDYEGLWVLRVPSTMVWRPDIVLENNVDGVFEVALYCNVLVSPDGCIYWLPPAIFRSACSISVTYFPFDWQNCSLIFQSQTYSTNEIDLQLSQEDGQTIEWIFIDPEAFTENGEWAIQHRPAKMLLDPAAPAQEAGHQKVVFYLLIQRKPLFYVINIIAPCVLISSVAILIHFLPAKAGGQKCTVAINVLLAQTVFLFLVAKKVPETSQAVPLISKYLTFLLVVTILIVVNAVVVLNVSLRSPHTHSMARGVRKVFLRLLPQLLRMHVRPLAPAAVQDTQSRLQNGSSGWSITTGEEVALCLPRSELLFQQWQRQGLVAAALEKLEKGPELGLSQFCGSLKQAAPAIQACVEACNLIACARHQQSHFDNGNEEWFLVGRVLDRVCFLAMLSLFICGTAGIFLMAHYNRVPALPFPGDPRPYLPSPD
T3 sequence (P09483 31-630): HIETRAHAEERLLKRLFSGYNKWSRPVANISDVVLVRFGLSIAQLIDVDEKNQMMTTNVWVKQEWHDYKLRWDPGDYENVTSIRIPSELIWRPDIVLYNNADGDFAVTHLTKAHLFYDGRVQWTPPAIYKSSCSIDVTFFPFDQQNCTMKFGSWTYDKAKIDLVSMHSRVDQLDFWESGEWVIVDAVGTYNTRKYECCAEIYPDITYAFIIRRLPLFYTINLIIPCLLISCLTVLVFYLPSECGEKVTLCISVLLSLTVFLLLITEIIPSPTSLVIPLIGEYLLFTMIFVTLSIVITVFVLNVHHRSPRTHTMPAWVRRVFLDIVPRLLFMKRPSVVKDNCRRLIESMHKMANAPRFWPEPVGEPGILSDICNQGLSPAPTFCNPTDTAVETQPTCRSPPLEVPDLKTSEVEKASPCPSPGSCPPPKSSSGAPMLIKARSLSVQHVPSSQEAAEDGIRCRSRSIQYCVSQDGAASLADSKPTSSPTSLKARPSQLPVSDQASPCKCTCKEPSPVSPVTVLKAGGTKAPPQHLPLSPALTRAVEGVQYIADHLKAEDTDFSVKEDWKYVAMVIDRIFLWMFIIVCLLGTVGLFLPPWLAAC
T3 sequence (P12390 25-500): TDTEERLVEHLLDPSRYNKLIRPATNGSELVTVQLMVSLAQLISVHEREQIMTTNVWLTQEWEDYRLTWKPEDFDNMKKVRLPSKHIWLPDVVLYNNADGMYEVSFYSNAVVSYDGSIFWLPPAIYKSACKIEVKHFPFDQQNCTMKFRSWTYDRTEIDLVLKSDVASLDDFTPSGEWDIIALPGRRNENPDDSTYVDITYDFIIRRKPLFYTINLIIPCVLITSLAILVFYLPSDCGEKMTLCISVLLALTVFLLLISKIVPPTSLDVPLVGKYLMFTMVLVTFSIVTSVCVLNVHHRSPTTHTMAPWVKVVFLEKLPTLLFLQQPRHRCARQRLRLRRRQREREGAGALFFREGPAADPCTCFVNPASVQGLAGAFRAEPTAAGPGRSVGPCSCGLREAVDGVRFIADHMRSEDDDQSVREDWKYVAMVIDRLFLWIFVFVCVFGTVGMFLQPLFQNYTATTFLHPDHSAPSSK

With `CCOc1cncc(C2CC3CCN2CC3)c1.Cl.Cl` (stereo not drawn) [Sample No. 7, 2-(5-ethoxy-3-pyridyl)-1-azabicyclo[2.2.2]octane dihydrochloride] as the compound, how does the pEC50 ([1]; Rattus norvegicus) read?
The pEC50 was 8.30.

What about the “Dopamine Release Ecmax” value [1, 6] of the same compound?
Its value is 40.

What about the “Muscle Effect Ecmax” value [2] of the same compound?
Its value is 137.

What about the pEC50 [3] of the same compound?
Its pEC50 is 5.00.

What about the “Ganglion Effect Ecmax” value [3, 6] of the same compound?
The value was 86.

And the logP [4]?
The logP was 1.82.

With `CN1CCC[C@H]1c1cccnc1` [C-1, (S)-(−)-nicotine, reference compound] as the compound, how does the “Dopamine Release Ecmax” value [1] read?
Its value is 100.

And the “Ganglion Effect Ecmax” value [3]?
The value was 100.

With `c1cncc([C@H]2C[C@@H]3CCN2C3)c1` (relative stereo) [Sample No. 3, exo 2-(3-pyridyl)-1-azabicyclo[2.2.1]heptane] as the compound, how does the pEC50 ([1]; Rattus norvegicus) read?
The pEC50 was 8.22.

And the “Dopamine Release Ecmax” value [1, 6]?
Its value is 130.

What about the “Muscle Effect Ecmax” value [2] of the same compound?
The value was 130.

And the pEC50 [3]?
The pEC50 was 6.82.

And the “Ganglion Effect Ecmax” value [3, 6]?
The value was 100.

What about the logP [4] of the same compound?
The logP was 0.94.

What does the source list for `c1cncc([C@@H]2C[C@@H]3CCN2C3)c1` (relative stereo) [Sample No. 4, endo-2-(3-pyridyl)-1-azabicyclo[2.2.1]heptane]?
pEC50 ([1]; Rattus norvegicus): 7.48; Dopamine Release Ecmax [1, 6]: 114; Muscle Effect Ecmax [2]: 130; pEC50 [3]: 6.82; Ganglion Effect Ecmax [3, 6]: 100; logP [4]: 0.94

For `CC(C)Oc1cncc(C2CC3CCN2CC3)c1.Cl.Cl` (stereo not drawn) [Sample No. 8, 2-(5-isopropoxy-3-pyridyl)-1-azabicyclo[2.2.2]octane dihydrochloride], which “Ganglion Effect Ecmax” value [3, 6] is on record?
Its value is 94.

What about the logP [4] of the same compound?
Its logP is 1.76.

Which “Dopamine Release Ecmax” value [1, 6] does the source give for `c1cncc(C2CC3CCN2CC3)c1` (racemic) [Sample No. 1, (+/−)-2-(3-pyridyl)-1-azabicyclo[2.2.2]octane] here?
The value was 40.

And the pEC50 [1, 7]?
Its pEC50 is 8.70.

What about the pEC50 ([2]; 86Rb+ efflux, TE671/RD cells, read-out: Muscle Effect EC50) of the same compound?
Its pEC50 is 7.23.

What about the “Muscle Effect Ecmax” value [2] of the same compound?
The value was 110.

What about the pEC50 [3, 8] of the same compound?
The pEC50 was 5.96.

What about the “Ganglion Effect Ecmax” value [3, 6] of the same compound?
The value was 85.

What about the logP [4] of the same compound?
The logP was 1.26.

What does the source list for `Cl.Cl.Cl.Nc1cncc(C2CC3CCN2CC3)c1` (stereo not drawn) [Sample No. 6, 2-(5-amino-3-pyridyl)-1-azabicyclo[2.2.2]octane trihydrochloride]?
pKi [5]: 8.59; Dopamine Release Ecmax [1, 6]: 43; pEC50 [1, 7]: 8.15; Muscle Effect Ecmax [2]: 100; amounts causing muscle effects relative to those required to cause dopamine release ([2]; muscle effects vs dopamine release): many times; pEC50 [3, 8]: 5.00; amounts causing effects upon ganglia relative to those required to cause dopamine release ([3]; ganglia effects vs dopamine release): many times; Ganglion Effect Ecmax [3, 6]: 75; logP [4]: 0.48

With `Brc1cncc(C2CC3CCN2CC3)c1` (racemic) [Sample No. 2, (+/−)-2-(5-bromo-3-pyridyl)-1-azabicyclo[2.2.2]octane] as the compound, how does the pEC50 ([1]; Rattus norvegicus) read?
Its pEC50 is 8.70.

And the “Dopamine Release Ecmax” value [1, 6]?
The value was 43.

What about the pEC50 [2] of the same compound?
Its pEC50 is 5.52.

And the “Muscle Effect Ecmax” value [2]?
Its value is 133.

And the pEC50 [3]?
The pEC50 was 5.52.

And the “Ganglion Effect Ecmax” value [3, 6]?
The value was 106.

What about the logP [4] of the same compound?
The logP was 2.05.

With `c1cncc(C2C3CCN2CC3)c1` (stereo not drawn) [Sample No. 5, 7-(3-pyridyl)-1-azabicyclo[2.2.1]heptane] as the compound, how does the pKi [5] read?
Its pKi is 8.15.

And the pEC50 ([1]; Rattus norvegicus)?
The pEC50 was 8.40.

What about the “Dopamine Release Ecmax” value [1, 6] of the same compound?
Its value is 93.

And the “Muscle Effect Ecmax” value [2]?
Its value is 130.

And the “Ganglion Effect Ecmax” value [3, 6]?
Its value is 120.

And the logP [4]?
The logP was 0.93.
